Source: PubChem BioAssay (NCI)
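Briefly, cells in 96-well plates were exposed to five compound concentrations for 48 h, and endpoints were estimated by linear interpolation. TGI marks complete inhibition of growth.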

Key:
Experiment in all cases: DTP human tumour cell line panel, 48 h
OVCAR-4 ovarian = test system: OVCAR-4 ovarian
HOP-62 NSCLC = test system: HOP-62 NSCLC
PC-3 prostate = test system: PC-3 prostate
T-47D breast = test system: T-47D breast
DU-145 prostate = test system: DU-145 prostate
COLO 205 colon = test system: COLO 205 colon
OVCAR-3 ovarian = test system: OVCAR-3 ovarian
MOLT-4 leukemia = test system: MOLT-4 leukemia
SF-539 CNS = test system: SF-539 CNS
SNB-19 CNS = test system: SNB-19 CNS

SMILES	TGI (OVCAR-4 ovarian) [µM]	TGI (HOP-62 NSCLC) [µM]	TGI (PC-3 prostate) [µM]	TGI (T-47D breast) [µM]	TGI (DU-145 prostate) [µM]	TGI (COLO 205 colon) [µM]	TGI (OVCAR-3 ovarian) [µM]	TGI (MOLT-4 leukemia) [µM]	TGI (SF-539 CNS) [µM]	TGI (SNB-19 CNS) [µM]
Cn1c(=O)c2sc3cc4c(cc3c2c2ccccc21)sc1c(=O)n(C)c2ccccc2c14	> 100	42.3	> 100	> 100	> 100	> 100	> 100	> 100	> 100	
O=C(NC/C=C/Br)NC1CCNc2ccccc21 (centres undefined)	> 100	> 100	> 100	93.9	> 100	37.7	> 100	95.4	45.8	> 100
CN(C)c1ccc(/C=C2\C[C@H]3[C@@H]4CCc5cc(O)ccc5[C@H]4CC[C@]3(C)C2=O)cc1	> 100	> 100	> 100	> 100	> 100	> 100	> 100	> 100	62.8	> 100
CCC1CCC2c3c([nH]c4ccccc34)C3C(=O)N(c4ccc(OC)cc4)C(=O)C3C2C1 (centres undefined)	36	> 100	> 100	55.8	> 100	> 100	41.9	32.5	> 100	74.9
Nc1ccc(-c2nc3ccccc3s2)cc1	35.6	60.3	29.2	65.5	31.6	45.2	33.3	70.3	45.1	61.5
C=C1C(=O)O[C@H]2[C@H]([C@H](C)CCCC(C)=O)O[C@H]([C@@]3(C)CCC(=O)O3)C[C@@H]12	> 100	> 100	> 100	> 100	> 100	> 100	> 100	> 100	> 100	> 100
C=CCn1c(=O)c2ccccc2[n+]2c(-c3cccc([N+](=O)[O-])c3)csc12	> 100	> 100	> 100	72.8	> 100	98.6	> 100	> 100	> 100	> 100
Cc1cccc2c1C(=O)[C@@](C)([C@]1(C)Nc3cccc(C)c3C1=O)N2	> 100	> 100	> 100	> 100	> 100	> 100	> 100	> 100	> 100	> 100
N#Cc1c(C#N)c(-c2ccccc2)n(/N=C\c2ccccc2)c1N	59.9	> 100	49.4	29.1	> 100	72	48.1	30.9	55.1	> 100
COc1cc(-c2[o+]c3cc(O)cc(OC4OC(CO)C(O)C(O)C4O)c3cc2OC2OC(CO)C(O)C(O)C2O)cc(OC)c1O (centres undefined)	> 100	> 100	> 100	> 100	> 100	> 100	> 100	> 100	> 100	> 100
COC(=O)C(C(=O)OC)C1CC(=O)c2c(Br)sc(Br)c21 (centres undefined)	26.3	46.3	29	> 100	34.8	28.5	17.5	18.7	42.6	47.3
O=C(NCc1cccnc1)C(=O)NCc1cccnc1	> 100	> 100	> 100	> 100	> 100	> 100	> 100	> 100	> 100	> 100
O=C1C(=Cc2ccccc2[N+](=O)[O-])N=C(c2ccccc2)N1n1c(-c2ccccc2)nc2ccccc2c1=O	> 100	> 100	80.6	62.6	> 100	> 100	> 100	70.4	> 100	> 100
CCOC(=O)CCC(C(=O)OCC)n1nnc2cc(Nc3c(C)[n+]([O-])c4ccc(Cl)cc4[n+]3[O-])ccc21 (centres undefined)	> 100	> 100	> 100	> 100	> 100	> 100	> 100	> 100	> 100	> 100
COc1ccc(C2NC(=O)Nc3c2c(=O)oc2c3ccc3ccccc32)cc1 (centres undefined)	> 100	> 100	> 100	> 100	> 100	> 100	> 100	> 100	> 100	> 100
COC(=O)C1[C@H](C(=O)OC)C1(Br)CBr (some centres undefined)	> 100	> 100	> 100	> 100	> 100	> 100	> 100	> 100	> 100	> 100
C/C(=C\CNc1nc(Cl)nc2nc[nH]c12)CO	> 100	> 100	> 100	> 100	> 100	> 100	> 100	> 100	> 100	> 100
c1ccc(CNc2ncnc3n[nH]nc23)cc1	> 100	> 100	> 100	> 100	> 100	> 100	> 100	> 100	> 100	> 100
COC(=O)[C@@H]1O[C@]12[C@@H](CO[Si](C)(C)C(C)(C)C)O[C@@H](n1cc(C)c(=O)[nH]c1=O)[C@@H]2O[Si](C)(C)C(C)(C)C	> 100	70.7	55.7	27.3	39	> 100	31.1	7.42	75.3	26
COC1=CC(=O)c2c(cc(COP(=O)(N(C)CCBr)N(C)CCBr)n2C)C1=O	20.4	5.23	> 83.2	33	19.5	2.56	10.7	> 100	0.339	14.7
